Source: patent publication US10765629B2 (Allergan, Inc., priority 2017, dated 2020)

Test: Stability study at 40° C./75% RH (appearance; potency by HPLC)
Format: physicochemical
Method: All the vials were sealed with HPLC vial cap. The Time 0 samples were in −20° C. freezer and all other samples in 40° C./75% RH chamber. […] After appropriate dilution, analyzed the samples by HPLC according to the method below:
The standard stock solution of Compound 1 was prepared by dissolving 1.18 mg Compound 1 with 25 ml mixture of acetonitrile and water (acetonitrile:water=1:1). The stock solution was serially further diluted with a dilution factor of 2 to obtain a standard calibration curve.

NC(=O)CCC/C=C\C[C@@H]1[C@@H](/C=C/[C@@H](O)CCc2cc(Cl)sc2Cl)[C@H](O)C[C@@H]1O [Compound 1, (Z)-7-((1R,2R,3R,5S)-2-((S,E)-5-(2,5-dichlorothiophen-3-yl)-3-hydroxypent-1-en-1-yl)-3,5-dihydroxycyclopentyl)hept-5-enamide]
Physical state on storage (40° C./75% RH, 12 weeks): became an oil
Physical state on storage (40° C./75% RH, within hours): turns into oil
Appearance (Day 1, 40° C./75% RH): Oil
Appearance (Time 0, sample kept in −20° C. freezer): White
Appearance (Week 1, 40° C./75% RH): Oil
Appearance (Week 2, 40° C./75% RH): Oil
Appearance (Week 4, 40° C./75% RH): Oil
Appearance (Week 8, 40° C./75% RH): Oil
Appearance (Week 12, 40° C./75% RH): Oil
Potency loss (end of the 12-week study, 40° C./75% RH, HPLC): about 20%
